Test results published in ChEMBL document CHEMBL5055646, “Discovery of novel BTK PROTACs for B-Cell lymphomas” (Eur J Med Chem, 2021).

How the values were obtained:
[1] = biological target: Protein cereblon/Tyrosine-protein kinase BTK (Homo sapiens, UniProt Q06187+Q96SW2, C481S); assay: Protac activity at BTK C481S mutant/CRBN in human TMD8 cells assessed as induction of BTK degradation measured after 1 hr by Western blot analysis; assay type: cell-based
[2] = Apparent permeability across apical to basolateral side in human Caco-2 cells; assay type: ADME, cell-based
[3] = biological target: T1, Tyrosine-protein kinase BTK (Homo sapiens, UniProt Q06187); assay: Inhibition of full length N-terminal GST fusion tagged human BTK expressed in baculovirus expression system at 50 nM using FAM-P2 peptide solution as substrate incubated for 10 mins in presence of ATP by microplate reader assay relative to control
[4] = biological target: T2, Protein cereblon/Tyrosine-protein kinase BTK (Homo sapiens, UniProt Q06187+Q96SW2); assay: Protac activity at BTK/CRBN in human JeKo-1 cells assessed as induction of BTK degradation at 100 nM measured after 1 hr by Western blot analysis relative to control; assay type: cell-based
Target sequence in this assay (Q06187 2-659 limits assumed): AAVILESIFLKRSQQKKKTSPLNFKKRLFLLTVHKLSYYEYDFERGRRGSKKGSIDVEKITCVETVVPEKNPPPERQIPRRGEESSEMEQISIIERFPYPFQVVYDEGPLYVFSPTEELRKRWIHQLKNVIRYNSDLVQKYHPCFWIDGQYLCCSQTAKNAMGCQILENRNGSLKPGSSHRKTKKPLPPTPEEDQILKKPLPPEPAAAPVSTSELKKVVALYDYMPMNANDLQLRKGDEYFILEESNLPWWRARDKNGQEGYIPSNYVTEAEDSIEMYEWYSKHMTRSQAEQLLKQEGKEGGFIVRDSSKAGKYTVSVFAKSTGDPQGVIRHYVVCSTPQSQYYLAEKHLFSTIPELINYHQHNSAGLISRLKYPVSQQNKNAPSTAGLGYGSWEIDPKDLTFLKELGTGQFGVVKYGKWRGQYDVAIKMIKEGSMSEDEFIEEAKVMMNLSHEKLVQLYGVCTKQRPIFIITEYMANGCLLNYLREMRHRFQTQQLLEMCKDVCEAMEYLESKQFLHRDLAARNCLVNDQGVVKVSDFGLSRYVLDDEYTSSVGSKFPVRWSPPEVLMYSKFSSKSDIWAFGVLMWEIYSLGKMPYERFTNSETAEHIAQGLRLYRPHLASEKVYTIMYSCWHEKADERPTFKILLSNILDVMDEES
Target sequence in this assay (Q96SW2 whole entry partner): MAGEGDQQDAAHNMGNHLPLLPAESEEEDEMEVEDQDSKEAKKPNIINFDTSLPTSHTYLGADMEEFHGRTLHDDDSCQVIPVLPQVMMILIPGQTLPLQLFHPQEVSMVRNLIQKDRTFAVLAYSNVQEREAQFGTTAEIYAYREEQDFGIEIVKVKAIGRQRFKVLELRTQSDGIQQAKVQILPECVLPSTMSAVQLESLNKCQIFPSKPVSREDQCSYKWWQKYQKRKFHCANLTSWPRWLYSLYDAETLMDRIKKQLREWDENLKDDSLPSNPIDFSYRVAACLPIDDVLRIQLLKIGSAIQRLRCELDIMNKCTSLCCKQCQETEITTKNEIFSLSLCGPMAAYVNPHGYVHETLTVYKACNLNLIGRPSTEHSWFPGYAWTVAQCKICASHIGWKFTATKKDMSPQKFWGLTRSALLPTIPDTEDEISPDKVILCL

[5] = system: TMD8; assay: cells; conditions: Homo sapiens, TMD8, 72 h
[6] = Apparent permeability across basolateral to apical side in human Caco-2 cells; assay type: ADME, cell-based
[7] = system: TMD8; assay: cells; conditions: Homo sapiens, TMD8, 72 h; remark: listed apart in the source
[8] = Half life in human plasma; assay type: ADME, cell-free
[9] = biological target: T1, Tyrosine-protein kinase BTK; assay: Inhibition of full length N-terminal GST fusion tagged human BTK expressed in baculovirus expression system at 500 nM using FAM-P2 peptide solution as substrate incubated for 10 mins in presence of ATP by microplate reader assay
[10] = biological target: T1, Tyrosine-protein kinase BTK; assay: Inhibition of full length N-terminal GST fusion tagged human BTK expressed in baculovirus expression system using FAM-P2 peptide solution as substrate incubated for 10 mins in presence of ATP by microplate reader assay
[11] = biological target: T2, Protein cereblon/Tyrosine-protein kinase BTK; assay: Protac activity at BTK/CRBN in human JeKo-1 cells assessed as maximal BTK degradation measured after 1 hr by Western blot analysis relative to control; assay type: cell-based
Target sequence in this assay (Q06187 2-659 limits assumed): as the sequence (Q06187 2-659 limits assumed) above
Target sequence in this assay (Q96SW2 whole entry partner): as the sequence (Q96SW2 whole entry partner) above

[12] = Efflux ratio of apparent permeability from basolateral to apical side over apical to basolateral side in human Caco-2 cells; assay type: ADME, cell-based
[13] = system: Protein cereblon/Tyrosine-protein kinase BTK (Homo sapiens), Q06187+Q96SW2 [C481S]; assay: Protac activity at BTK C481S mutant/CRBN in human TMD8 cells assessed as maximal BTK degradation measured after 1 hr by Western blot analysis relative to control; assay type: cell-based
[14] = biological target: T2, Protein cereblon/Tyrosine-protein kinase BTK; assay: Protac activity at BTK/CRBN in human JeKo-1 cells assessed as induction of BTK degradation measured after 1 hr by Western blot analysis; assay type: cell-based
Target sequence in this assay (Q06187 whole entry): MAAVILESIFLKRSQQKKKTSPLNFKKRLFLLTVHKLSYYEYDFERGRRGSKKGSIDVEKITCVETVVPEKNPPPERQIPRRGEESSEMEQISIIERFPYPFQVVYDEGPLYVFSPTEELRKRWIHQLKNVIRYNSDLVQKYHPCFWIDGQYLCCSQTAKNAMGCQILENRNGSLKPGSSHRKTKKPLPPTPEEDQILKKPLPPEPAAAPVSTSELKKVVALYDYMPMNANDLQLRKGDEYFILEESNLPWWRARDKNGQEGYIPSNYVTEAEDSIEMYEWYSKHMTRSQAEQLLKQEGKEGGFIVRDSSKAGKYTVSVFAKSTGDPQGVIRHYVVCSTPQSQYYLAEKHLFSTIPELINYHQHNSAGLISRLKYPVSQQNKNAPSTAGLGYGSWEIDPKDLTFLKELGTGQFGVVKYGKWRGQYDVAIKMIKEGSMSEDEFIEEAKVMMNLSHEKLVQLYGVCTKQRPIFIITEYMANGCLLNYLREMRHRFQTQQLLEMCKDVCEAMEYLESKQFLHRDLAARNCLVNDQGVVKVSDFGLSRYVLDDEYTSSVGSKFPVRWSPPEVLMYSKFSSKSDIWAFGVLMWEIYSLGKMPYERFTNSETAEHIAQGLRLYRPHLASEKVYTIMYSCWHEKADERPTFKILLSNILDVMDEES
Target sequence in this assay (Q96SW2 whole entry): as the sequence (Q96SW2 whole entry partner) above

Protein cereblon/Tyrosine-protein kinase BTK (Homo sapiens, UniProt Q06187+Q96SW2, C481S), sequence (Q06187 2-659 C481S limits assumed, stated change not applied): as the sequence (Q06187 2-659 limits assumed) above, with C480S counted along it
Protein cereblon/Tyrosine-protein kinase BTK (Homo sapiens, UniProt Q06187+Q96SW2, C481S), sequence (Q96SW2 whole entry, stated change not applied): as the sequence (Q96SW2 whole entry partner) above
T1 sequence (Q06187 whole entry, the tested form may be a part): as the sequence (Q06187 whole entry) above

inhibition [3]	inhibition [9]	IC50 [10]	Compound	DC50 [1]	Papp A→B [2]	Activity [4]	IC50 [5]	Papp B→A [6]	IC50 [7]	half-life [8]	%max [11]	efflux ratio [12]	%max [13]	DC50 [14]
7.5%	21.5%	3.78 µM	O=C(CNc1ncnc2[nH]cc(C(=O)c3ccc(Oc4ccccc4)cc3Cl)c12)NCCOCCOCCNc1cccc2c1C(=O)N(C1CCC(=O)NC1=O)C2=O (stereo not drawn)	–	–	33%	–	–	–	–	–	–	–	–
94.2%	99.5%	0.0043 µM	N[C@H]1CC[C@@H](Nc2ncnc3[nH]cc(C(=O)c4ccc(Oc5ccccc5)cc4Cl)c23)CC1	–	–	–	–	–	–	–	–	–	–	–
1.8%	9.3%	–	O=C(CNc1ncnc2[nH]cc(C(=O)c3ccc(Oc4ccccc4)cc3Cl)c12)NCCCCNc1cccc2c1C(=O)N(C1CCC(=O)NC1=O)C2=O (stereo not drawn)	–	–	24.9%	–	–	–	–	–	–	–	–
2.4%	10.9%	–	O=C(CNc1ncnc2[nH]cc(C(=O)c3ccc(Oc4ccccc4)cc3Cl)c12)NCCNc1cccc2c1C(=O)N(C1CCC(=O)NC1=O)C2=O (stereo not drawn)	–	–	–	–	–	–	–	–	–	–	–
75%	96.2%	0.023 µM	O=C1CCC(N2C(=O)c3cccc(NCCCCNC(=O)N[C@H]4CC[C@@H](Nc5ncnc6[nH]cc(C(=O)c7ccc(Oc8ccccc8)cc7Cl)c56)CC4)c3C2=O)C(=O)N1 (stereo partly drawn)	–	–	6.8%	–	–	–	–	–	–	–	–
82.1%	97.4%	0.0155 µM	O=C1CCC(N2C(=O)c3cccc(NCCOCCOCCNC(=O)N[C@H]4CC[C@@H](Nc5ncnc6[nH]cc(C(=O)c7ccc(Oc8ccccc8)cc7Cl)c56)CC4)c3C2=O)C(=O)N1 (stereo partly drawn)	–	–	22.8%	–	–	–	–	–	–	–	–
–	–	0.0252 µM	CCNC(=O)N[C@H]1CC[C@@H](Nc2ncnc3[nH]cc(C(=O)c4ccc(Oc5ccccc5)cc4Cl)c23)CC1	–	–	–	–	–	–	–	–	–	–	–
7%	39%	–	O=C(CNc1ncnc2[nH]cc(C(=O)c3ccc(Oc4ccccc4)cc3Cl)c12)NCCOCCOCCOCCOCCOCCOCCOCCNc1cccc2c1C(=O)N(C1CCC(=O)NC1=O)C2=O (stereo not drawn)	–	–	14.7%	–	–	–	–	–	–	–	–
8.6%	21.6%	1.93 µM	O=C(CNc1ncnc2[nH]cc(C(=O)c3ccc(Oc4ccccc4)cc3Cl)c12)NCCOCCOCCOCCNc1cccc2c1C(=O)N(C1CCC(=O)NC1=O)C2=O (stereo not drawn)	–	–	56.2%	–	–	–	–	67.1%	–	–	0.0285 µM

The remaining lines, values behind:

Compound	inhibition [3]	inhibition [9]	IC50 [10]	DC50 [1]	Papp A→B [2]	Activity [4]	IC50 [5]	Papp B→A [6]	IC50 [7]	half-life [8]	%max [11]	efflux ratio [12]	%max [13]	DC50 [14]
O=C1CCC(N2C(=O)c3cccc(NCCOCCOCCOCCOCCOCCNC(=O)N[C@H]4CC[C@@H](Nc5ncnc6[nH]cc(C(=O)c7ccc(Oc8ccccc8)cc7Cl)c56)CC4)c3C2=O)C(=O)N1 (stereo partly drawn)	58.4%	90%	0.0564 µM	0.0429 µM	< 53 nm/s	93.7%	0.254 µM	75 nm/s	0.0457 µM	3.55 h	93%	> 1.4	90.7%	0.0419 µM
CCNC(=O)CNc1ncnc2[nH]cc(C(=O)c3ccc(Oc4ccccc4)cc3Cl)c12	–	–	0.407 µM	–	–	–	–	–	–	–	–	–	–	–
O=C(CNc1ncnc2[nH]cc(C(=O)c3ccc(Oc4ccccc4)cc3Cl)c12)NCCOCCOCCOCCOCCOCCNc1cccc2c1C(=O)N(C1CCC(=O)NC1=O)C2=O (stereo not drawn)	5.9%	35.5%	1.21 µM	0.0804 µM	–	64.2%	1.69 µM	–	0.0633 µM	5.34 h	72.4%	–	88.4%	0.0081 µM
O=C(CNc1ncnc2[nH]cc(C(=O)c3ccc(Oc4ccccc4)cc3Cl)c12)NCCOCCOCCOCCOCCNc1cccc2c1C(=O)N(C1CCC(=O)NC1=O)C2=O (stereo not drawn)	5.6%	35.6%	2.2 µM	0.0527 µM	–	55.6%	–	–	–	–	66.5%	–	68.6%	0.0094 µM
O=C1CCC(N2C(=O)c3cccc(NCCOCCOCCOCCOCCNC(=O)N[C@H]4CC[C@@H](Nc5ncnc6[nH]cc(C(=O)c7ccc(Oc8ccccc8)cc7Cl)c56)CC4)c3C2=O)C(=O)N1 (stereo partly drawn)	32.6%	74.9%	0.0469 µM	0.0379 µM	–	88.8%	0.29 µM	–	0.0395 µM	–	78%	–	83.5%	0.0121 µM
CCOC(=O)CNc1ncnc2[nH]cc(C(=O)c3ccc(Oc4ccccc4)cc3Cl)c12	4.9%	10.9%	5.97 µM	–	–	–	–	–	–	–	–	–	–	–
O=C(CNc1ncnc2[nH]cc(C(=O)c3ccc(Oc4ccccc4)cc3Cl)c12)NCCOCCOCCOCCOCCOCCOCCNc1cccc2c1C(=O)N(C1CCC(=O)NC1=O)C2=O (stereo not drawn)	10%	42.5%	1.39 µM	0.0523 µM	–	78.7%	0.75 µM	–	0.104 µM	–	92.4%	–	84.8%	0.0083 µM
O=C(O)CNc1ncnc2[nH]cc(C(=O)c3ccc(Oc4ccccc4)cc3Cl)c12	44.2%	85.1%	0.0814 µM	–	–	–	–	–	–	–	–	–	–	–
O=C1CCC(N2C(=O)c3cccc(NCCOCCOCCOCCNC(=O)N[C@H]4CC[C@@H](Nc5ncnc6[nH]cc(C(=O)c7ccc(Oc8ccccc8)cc7Cl)c56)CC4)c3C2=O)C(=O)N1 (stereo partly drawn)	73.5%	95.2%	0.0223 µM	0.0301 µM	–	44.1%	–	–	–	–	76.9%	–	84.3%	0.0323 µM
